{
  "source": "patent USRE32268E",
  "about": "“Therapeutic composition and method of therapeutically treating warm blooded animals therewith” (Strategic Medical Research Corp., priority 1983, dated 1986)",
  "key": {"[1]": {"tested_on": "influenza A2/Hong Kong disease", "assay": "suppression of influenza A2/Hong Kong disease in mice", "assay_type": "in vivo", "details": "infected treated, 40 mg/Kg orally, at 8 days"}, "influenza A/PR/8": {"tested_on": "influenza A/PR/8", "assay": "prevention of death in mice ill with a lethal influenza A/PR/8 infection", "assay_type": "in vivo", "details": "once 90 minutes before infection; for % of Population Protected / % Mortality: 8 days; for % Mortality: control 95; for Mortality Frequency at 8 Days: control 42/44", "experimental": "The above medication was also examined for its capacity to prevent death in mice ill with a lethal influenza A/PR/8 infection. The drug was given subcutaneously at 3 dose levels, once 90 minutes before infection."}, "herpes simplex virus": {"tested_on": "herpes simplex virus", "assay": "organism not typed", "assay_type": "cell-based"}, "[2]": {"tested_on": "influenza A2 virus, Hong Kong strain", "assay": "antiviral potency against influenza A2 virus, Hong Kong strain, in tissue culture (baby hamster kidney cell line)", "assay_type": "cell-based", "details": "for log reduction at 3 µg/mL / log reduction at 10 µg/mL: read-out: Log Decrease in Infectivity of Virus Inoculum", "experimental": "Well established methodology of the prior art was employed to determine the antiviral potency of compounds against influenza A2 virus, Hong Kong strain, in tissue cultures, employing the baby hamster kidney cell line (see R. L. Muldoon, L. Mezny and G. G. Jackson in Antimicrobial Agents and Chemotherapy 2:224-228, 1972). Virus infectivity was evaluated by both hemagglutination techniques and cytopathogenic effects, with identical results for each method. In Table 1 below, the virus-inhibiting effects of two low drug concentrations, 3 and 10 μg/ml, are depicted. Results are given as the log decrease in infectivity of the virus inoculum. A log decrease of 4.0 is the maximum obtainable, representing complete suppression of virus growth in the system. The virus inoculum of day 0 was always 100 times that amount required to kill 50% of the tissue culture cells (100 TCD50)."}, "[3]": {"details": "herpes simplex virus, tissue culture"}, "[4]": {"details": "3 μg/ml, inoculum 100 TCD50, 4.0 is the maximum obtainable"}, "[5]": {"details": "10 μg/ml, inoculum 100 TCD50, 4.0 is the maximum obtainable"}},
  "note": "Like-named read-outs stand apart in the source and are kept apart here.",
  "data": [
    {"molecule": "CN(C)CCCO[C@H]1[C@H](O)[C@@H](CO)OC(O)[C@@H]1O", "note": "(stereo partly drawn) [3-O-3'-(N',N'-dimethylamino-n-propyl)-D-glucopyranose]", "values": [
      {"measurement": "Frequency of Normal Lungs (<170 mg)", "setting": "[1]; normal 12/21, infected control 1/21", "value": "13/21"},
      {"measurement": "Average Lung Weight", "setting": "[1]; beginning 24 hours post-infection, 50% of drug 1,2-acetone-blocked, normal 160, infected control 258", "value": 177, "unit": "mg"},
      {"measurement": "% Disease Suppression", "setting": "[1]; beginning 24 hours post-infection, lung weight", "value": 82, "unit": "%"},
      {"measurement": "% of Population Protected", "setting": "influenza A/PR/8; 10 mg/Kg subcutaneously", "value": 14, "unit": "%"},
      {"measurement": "% Mortality", "setting": "influenza A/PR/8; 10 mg/Kg subcutaneously", "value": 81, "unit": "%"},
      {"measurement": "Mortality Frequency at 8 Days", "setting": "influenza A/PR/8; 10 mg/Kg subcutaneously", "value": "18/22"},
      {"measurement": "% of Population Protected", "setting": "influenza A/PR/8; 40 mg/Kg subcutaneously", "value": 23, "unit": "%"},
      {"measurement": "% Mortality", "setting": "influenza A/PR/8; 40 mg/Kg subcutaneously", "value": 72, "unit": "%"},
      {"measurement": "Mortality Frequency at 8 Days", "setting": "influenza A/PR/8; 40 mg/Kg subcutaneously", "value": "16/22"},
      {"measurement": "% of Population Protected", "setting": "influenza A/PR/8; 160 mg/Kg subcutaneously", "value": 50, "unit": "%"},
      {"measurement": "% Mortality", "setting": "influenza A/PR/8; 160 mg/Kg subcutaneously", "value": 45, "unit": "%"},
      {"measurement": "Mortality Frequency at 8 Days", "setting": "influenza A/PR/8; 160 mg/Kg subcutaneously", "value": "10/22"},
      {"measurement": "relative antiviral potency", "setting": "herpes simplex virus", "value": "the most potent derivative"},
      {"measurement": "relative antiviral potency", "setting": "[2]; influenza A2, among tested derivatives", "value": "the most potent effect"},
      {"measurement": "log reduction at 3 µg/mL", "setting": "[2]", "value": 3.2},
      {"measurement": "log reduction at 10 µg/mL", "setting": "[2]", "value": 4}
    ]},
    {"molecule": "CCN(CC)CCOC1C(C2COC(C)(C)O2)OC2OC(C)(C)OC21", "note": "[1,2:5,6-di-O-isopropylidene-3-O-2'-(N',N'-diethylaminoethyl)-D-glucofuranose]", "values": [
      {"measurement": "Concentration required to exert 50% inhibition of herpes-induced plaque formation", "setting": "herpes simplex virus; [3]", "value": 6, "unit": "µg/mL"},
      {"measurement": "Concentration required to exert 100% inhibition of herpes-induced plaque formation", "setting": "herpes simplex virus; [3]", "value": 30, "unit": "µg/mL"}
    ]},
    {"molecule": "CN1CCC(O[C@H]2[C@H](O)[C@@H](CO)OC(O)[C@@H]2O)CC1", "note": "(stereo partly drawn) [3-O--4'-(N--methylpiperidyl)-D-glucose, 3-O-4'-(N-methylpiperidyl)-D-glucopyranose]", "values": [
      {"measurement": "log reduction at 3 µg/mL", "setting": "[2]", "value": 2.5},
      {"measurement": "log reduction at 10 µg/mL", "setting": "[2]", "value": 3.5}
    ]},
    {"molecule": "NCCCO[C@H]1[C@H](O)[C@@H](CO)OC(O)[C@@H]1O", "note": "(stereo partly drawn) [3-O--3'-n-propylamino-D-glucose, 3-O-3'-(n-propylamino)-D-glucopyranose]", "values": [
      {"measurement": "IC100", "setting": "herpes simplex virus; read-out: Concentration required to exert 100% inhibition of herpes-induced plaque formation, herpes simplex virus, tissue culture", "value": 20, "unit": "µg/mL"}
    ]},
    {"molecule": "CCN(CC)CCO[C@H]1[C@H](O)[C@@H](CO)OC(O)[C@@H]1O", "note": "(stereo partly drawn) [3-O-2'-(N',N'-diethylaminoethyl)-D-glucose]", "values": [
      {"measurement": "log reduction at 3 µg/mL", "setting": "[2]; [4]", "value": 0.5},
      {"measurement": "log reduction at 10 µg/mL", "setting": "[2]; [5]", "value": 1}
    ]},
    {"molecule": "3-O-2'-(N',N'-dimethylaminopropyl)-D-glucopyranose", "values": [
      {"measurement": "Concentration required to exert 50% inhibition of herpes-induced plaque formation", "setting": "herpes simplex virus", "value": 3, "unit": "µg/mL"},
      {"measurement": "Concentration required to exert 100% inhibition of herpes-induced plaque formation", "setting": "herpes simplex virus", "value": "> 20", "unit": "µg/mL"},
      {"measurement": "Log Decrease in Infectivity of Virus Inoculum", "setting": "[2]; [4]", "value": 1.0, "unit": "log"},
      {"measurement": "Log Decrease in Infectivity of Virus Inoculum", "setting": "[2]; [5]", "value": 2.0, "unit": "log"}
    ]},
    {"molecule": "CC(CN(C)C)O[C@H]1O[C@H](CO)[C@@H](O)[C@H](O)[C@H]1O", "note": "(stereo partly drawn) [α-N,N--dimethylaminoisopropylglucoside, α-N,N-dimethylaminoisopropyl-D-glucoside]", "values": [
      {"measurement": "Concentration required to exert 50% inhibition of herpes-induced plaque formation", "setting": "herpes simplex virus; [3]", "value": 10, "unit": "µg/mL"},
      {"measurement": "Concentration required to exert 100% inhibition of herpes-induced plaque formation", "setting": "herpes simplex virus; [3]", "value": "> 50", "unit": "µg/mL"},
      {"measurement": "Log Decrease in Infectivity of Virus Inoculum", "setting": "[2]; [4]", "value": 1.5, "unit": "log"},
      {"measurement": "Log Decrease in Infectivity of Virus Inoculum", "setting": "[2]; [5]", "value": 2.5, "unit": "log"}
    ]},
    {"molecule": "CC(CN(C)C)OC[C@H]1OC(O)[C@H](O)[C@@H](O)[C@H]1O", "note": "(stereo partly drawn) [6-O-2'-(N',N'-dimethylaminopropyl)-D-galactose]", "values": [
      {"measurement": "Log Decrease in Infectivity of Virus Inoculum", "setting": "[2]; [4]", "value": 0.1, "unit": "log"},
      {"measurement": "Log Decrease in Infectivity of Virus Inoculum", "setting": "[2]; [5]", "value": 0.5, "unit": "log"}
    ]},
    {"molecule": "CN1CCC(O[C@@H]2[C@H]3OC(C)(C)O[C@H]3O[C@@H]2[C@H]2COC(C)(C)O2)CC1", "note": "[1,2,5,6-di-O--isopropylidene-3-O--4'-(N--methyl-piperidyl)-D-glucofuranose]", "values": [
      {"measurement": "IC50", "setting": "herpes simplex virus; read-out: Concentration required to exert 50% inhibition of herpes-induced plaque formation, herpes simplex virus, tissue culture", "value": "< 3", "unit": "µg/mL"}
    ]},
    {"molecule": "CN(C)CCCOC[C@H]1OC(O)[C@H](O)[C@@H](O)[C@H]1O", "note": "(stereo partly drawn) [6-O-3'-(N',N'-dimethylamino-n-propyl)-D-galactopyranose]", "values": [
      {"measurement": "log reduction at 3 µg/mL", "setting": "[2]; [4]", "value": 1},
      {"measurement": "log reduction at 10 µg/mL", "setting": "[2]; [5]", "value": 2}
    ]},
    {"molecule": "CC(CO[C@H]1[C@H](O)[C@@H](CO)OC(O)[C@@H]1O)CN(C)C", "note": "(stereo partly drawn) [3-O-3'-(2',N',N'-trimethylamino-n-propyl)-D-glucopyranose]", "values": [
      {"measurement": "log reduction at 3 µg/mL", "setting": "[2]; [4]", "value": 2.4},
      {"measurement": "log reduction at 10 µg/mL", "setting": "[2]; [5]", "value": 3}
    ]},
    {"molecule": "CN(C)CCO[C@H]1[C@H](O)[C@@H](CO)OC(O)[C@@H]1O", "note": "(stereo partly drawn) [3-O-2'-(N',N'-dimethylaminoethyl)-D-glucopyranose]", "values": [
      {"measurement": "log reduction at 3 µg/mL", "setting": "[2]; [4]", "value": 2.5},
      {"measurement": "log reduction at 10 µg/mL", "setting": "[2]; [5]", "value": 3.5}
    ]}
  ]
}
